{"source": "patent US9573898B2", "about": "“Pyridine derivates and their use as Umami tastants” (Givaudan S.A., priority 2011, dated 2017)", "type_in_all_cases": "in vivo, human", "key": {"[1]": {"test_system": "professional panel composed of 2 women and 3 men", "test": "Tasting of NaCl solutions by a professional panel (Example 2)", "experimental": "Two solutions were prepared: • A—a solution of 0.3% NaCl and 0.05% MSG, • B—a solution of 0.3% NaCl and 1 ppm of 2-(2,3-dihydro-1H-inden-5-yloxy)-N-(pyridin-2-ylmethyl)acetamide.\nThe samples were tasted by a professional panel composed of 2 women and 3 men aged between 30 and 60. The panel agreed that both solutions tasted umami."}, "[2]": {"test_system": "trained sensory panel composed of 20 women", "test": "Potato chips tasting by a trained sensory panel (Example 6)", "experimental": "Plain potato chips were prepared. • One part was flavoured with 1.2% sodium chloride (sample A). • One part was flavoured with 1.2% sodium chloride and 0.3% mono sodium glutamate (sample B). • One part was flavoured with 1.2% sodium chloride and 5 ppm 2-(2,3-dihydro-1H-inden-5-yloxy)-N-(pyridin-2-ylmethyl)acetamide (sample C).\nThe samples A, B and C were tasted by a trained sensory panel composed of 20 women aged between 30 and 60."}, "[3]": {"test_system": "professional panel composed of 2 women and 2 men", "test": "Tasting of NaCl/ribonucleotide solutions by a professional panel (Example 4)", "details": "10 ppm compound in 0.5% NaCl and 0.002% ribonucleotide mixture vs the same solution without compound", "experimental": "Three solutions were prepared: • A—a solution of 0.5% NaCl and 0.002% Ribonucleotide mixture, • B—a solution of 0.5% NaCl, 0.002% Ribonucleotide mixture and 10 ppm of 2-(4-ethylphenoxy)-N-(pyridin-2-ylmethyl)acetamide, • C—a solution of 0.5% NaCl, 0.002% Ribonucleotide mixture and 10 ppm of 2-(4-isopropylphenoxy)-N-(pyridin-2-ylmethyl)acetamide.\nThe samples were tasted by a professional panel composed of 2 women and 2 men aged between 30 and 60."}, "[4]": {"test_system": "professional panel composed of 2 women and 3 men", "test": "Tasting of NaCl/MSG/ribonucleotide solutions by a professional panel (Example 3)", "details": "solution B (0.5% NaCl, 0.05% MSG, 0.010% ribonucleotide mixture, 2 ppm compound) vs solution A (0.5% NaCl, 0.15% MSG, 0.025% ribonucleotide mixture)", "experimental": "Two solutions were prepared: • A—a solution of 0.5% NaCl, 0.15% MSG and 0.025% Ribonucleotide mixture, • B—a solution of 0.5% NaCl, 0.05% MSG, 0.010% Ribonucleotide mixture and 2 ppm of 2-(2,3-dihydro-1H-inden-5-yloxy)-N-(pyridin-2-ylmethyl)acetamide.\nThe samples were tasted by a professional panel composed of 2 women and 3 men aged between 30 and 60."}, "[5]": {"test_system": "small group of flavourists (2 male, 2 female)", "test": "Tomato soup tasting by flavourists (Example 5)", "details": "tomato soup containing 2 ppm compound vs reference soup", "experimental": "A tomato soup mix was prepared from 9.4 g of sodium chloride, 1 g of mono sodium glutamate, 0.08 g ribonucleotides (ex yeast), 32 g of tomato powder (ex Spreda), 25.1 g of glucose, 21 g of starch (Ultrasperse® 5 ex National Starch), 5 g of palm fat powder, 3 g of yeast powder, 1 g of onion powder, 0.15 g of carrot powder, 0.05 g of ground white pepper, 0.3 g celery extract powder, 0.05 g of ground laurel leaf powder, and 1.85 g of sucrose.\n25 g of the well mixed ingredients was added to 250 g of boiling water and stirred until completely dissolved.\nThe reference soup was compared with a batch of the same soup containing 2 ppm of 2-(2,3-dihydro-1H-inden-5-yloxy)-N-(pyridin-2-ylmethyl)acetamide."}, "[6]": {"test_system": "small group of flavourists (2 male, 2 female)", "test": "Diluted soy sauce tasting by flavourists (Example 7)", "details": "sample A: Kikkoman soy sauce diluted 10 times, 1.5 ppm compound", "experimental": "Kikkoman® soy sauce was diluted 10 times with tap water. One part of the base soy sauce was taken as the reference. To another part (called sample A) 1.5 ppm of 2-(2,3-dihydro-1H-inden-5-yloxy)-N-(pyridin-2-ylmethyl)acetamide was added. To a third part (called sample B) 0.5 ppm of 2-(2,3-dihydro-1H-inden-5-yloxy)-N-(pyridin-2-ylmethyl)acetamide and 1 ppm of 1-(2-hydroxy-4-methoxyphenyl)-3-(pyridin-2-yl)propan-1-one were added."}, "[7]": {"details": "solution B (0.3% NaCl, 1 ppm compound) vs solution A (0.3% NaCl, 0.05% MSG)"}}, "data": [{"compound": "N[C@@H](CCC(=O)O)C(=O)[O-].[Na+]", "note": "[MSG, mono sodium glutamate, reference compound]", "values": [{"measurement": "umami taste of solution", "setting": "[1]; solution A: 0.3% NaCl and 0.05% MSG", "value": "tasted umami"}, {"measurement": "taste description", "setting": "[2]; sample B: 1.2% sodium chloride and 0.3% mono sodium glutamate", "value": "salty and umami"}]}, {"compound": "CCc1ccc(OCC(=O)NCc2ccccn2)cc1", "note": "[2-(4-ethylphenoxy)-N-(pyridin-2-ylmethyl)acetamide]", "values": [{"measurement": "umami strength compared with solution A", "setting": "[3]", "value": "stronger umami strength"}]}, {"compound": "CC(C)c1ccc(OCC(=O)NCc2ccccn2)cc1", "note": "[2-(4-isopropylphenoxy)-N-(pyridin-2-ylmethyl)acetamide]", "values": [{"measurement": "umami strength compared with solution A", "setting": "[3]", "value": "stronger umami strength"}]}, {"compound": "O=C(COc1ccc2c(c1)CCC2)NCc1ccccn1", "note": "[2-(2,3-dihydro-1H-inden-5-yloxy)-N-(pyridin-2-ylmethyl)acetamide]", "values": [{"measurement": "further taste notes compared with solution A", "setting": "[1]; [7]", "value": "more succulence and sweetness and had more lingering notes"}, {"measurement": "umami strength compared with solution A", "setting": "[1]; [7]", "value": "slightly stronger umami"}, {"measurement": "umami taste of solution", "setting": "[1]; solution B: 0.3% NaCl and 1 ppm compound", "value": "tasted umami"}, {"measurement": "umami strength compared with solution A", "setting": "[4]", "value": "equal umami strength"}, {"measurement": "complexity of taste compared with base soup", "setting": "[5]", "value": "tasted more complex"}, {"measurement": "umami taste compared with base soup", "setting": "[5]", "value": "more umami"}, {"measurement": "panel preference", "setting": "[2]; sample C (1.2% sodium chloride, 5 ppm compound) vs sample A (1.2% NaCl) and sample B (1.2% NaCl, 0.3% MSG)", "value": "preferred over the other two samples"}, {"measurement": "taste description", "setting": "[2]; sample C: 1.2% sodium chloride and 5 ppm compound", "value": "salty, umami, long lasting, savory"}, {"measurement": "complexity compared with base soy sauce", "setting": "[6]", "value": "more complex"}, {"measurement": "umami and sweet taste compared with base soy sauce", "setting": "[6]", "value": "more umami and slightly more sweet"}]}]}
